Assay [1] concerns the target L-xylulose reductase (Homo sapiens) (UniProt Q7Z4W1).
The target is the same in assay [2]. Nature of the assay: Protein interaction energy by using binding affinity towards human L-xylulose reductase enzyme.

SMILES strings stand for the structures.

L-xylulose reductase (Homo sapiens), sequence (Q7Z4W1 whole entry): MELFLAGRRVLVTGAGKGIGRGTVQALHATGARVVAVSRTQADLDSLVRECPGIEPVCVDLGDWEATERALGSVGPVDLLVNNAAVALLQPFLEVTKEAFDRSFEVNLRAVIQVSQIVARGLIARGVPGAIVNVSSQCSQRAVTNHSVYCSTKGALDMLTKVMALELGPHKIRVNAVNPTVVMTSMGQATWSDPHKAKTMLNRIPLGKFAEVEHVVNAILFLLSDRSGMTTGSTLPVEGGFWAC

For `O=C(O)CC(C(=O)O)C(=O)O`, the Protein interaction energy in assay [1] was -163 kcal/M. The compound `O=C(O)CCC(=O)O` showed a Protein interaction energy in assay [1] of -114 kcal/M.

`CCC(C(=O)O)C(=O)O` registered a Protein interaction energy in assay [2] of -86.7 kcal/M.

With `CO[PH](O)(O)OCC(=O)O`, the Protein interaction energy in assay [1] was -114 kcal/M. On the same count and under the same terms, with `CCC(O)C(=O)O` (stereo not given) the figure was -38.4 kcal/M; with `CCCOP(=O)(O)O`, -87.4 kcal/M. In assay [1], `CCC(CO)C(=O)O` (stereo not given) yielded a Protein interaction energy of -41.4 kcal/M. On to `CCCC(=O)O`, for which the Protein interaction energy in assay [1] was -40.4 kcal/M. The compound `CCC(C(=O)O)c1ccc(O)cc1` (stereo not given) displayed a Protein interaction energy in assay [1] of -51.6 kcal/M. The compound `CCCc1ccc(O)cc1` registered a Protein interaction energy in assay [1] of -26.9 kcal/M.

These data come from ChEMBL document CHEMBL1136708, “Structure-based design of inhibitors of human L-xylulose reductase modelled into the active site of the enzyme” (Bioorg Med Chem Lett, 2003).
